15 molecules from patent US11795151B2, “Benzotriazole compound” (MIYOSHI OIL & FAT CO., LTD., priority 2017, dated 2023) can be followed below.

Molecules are shown by their SMILES.

The nature of the data set: Evaluation of UV absorption performance (2): absorbance spectra in chloroform. It is filed as physicochemical. Conditions: 100 μM, 10-mm quartz cell. The protocol:
Compounds 11 to 28 were diluted with 100 μM of chloroform and placed in a 10-mm quartz cell, and the absorbance spectra were measured using an ultraviolet-visible spectrophotometer (V-550, manufactured by JASCO Corporation)(FIGS. 11,12,14 to 29).
The absorption peak (maximum absorption wavelength: max) and absorbance in the wavelength range of 350 to 390 nm were read from the absorption spectra of Compounds 11 to 28, and a molar extinction coefficient (maximum molar extinction coefficient: εmax) of the peak was obtained by the following formula (Table 7): Molar extinction coefficient:εmax(L/(mol·cm))=A:Absorbance/[c:Mol concentration(mol/L)×1:Cell optical length(cm)] [Equation 3]
In addition, from the absorption spectra of Compounds 11 to 28, assuming that an intersection of a long-wavelength side absorption spectrum in the absorption peak at 350 to 390 nm and a baseline (a line where the slope of the absorption spectrum at […] is zero) is set as a peak end (for example: FIG. 1), the absolute value of the slope of the absorption peak on the long-wavelength side in the wavelength region at 350 to 390 nm was obtained by the following equation (Table 8): |Slope of absorption peak on long wavelength side in wavelength region of 350 to 390n|=|(Absorbance at peak end−Absorbance at absorption peak in wavelength region of 350 to 390 nm)/(Absorption wavelength at peak end−Wave length at absorption peak in wavelength region of 350 to 390 nm)| [Equation 4]
`CC(=O)OCCSc1ccc2nn(-c3cc(C)cc(C(C)(C)C)c3O)nc2c1` [Compound 13]: the “Absorbance at absoprtion peak in wavelength region of 350 to 390 nm” value (“Absorbance at absoprtion peak” below) came out at 2.22, the “Absorbance at peak end” value was 0.0302, the “Absorption wavelength at peak end” value is 419 nm and the “Molar extinction coefficient at peak (maximum molar extinction coefficient: εmax)” value (from here on “Molar extinction coefficient at peak”) turned out to be 22200 L/mol/cm. In addition, the “Wave length at absorption peak in wavelength region of 350 to 390 nm (maximum absorption wavelength: λmax)” value (“Wave length at absorption peak” for short) turned out to be 365 nm.
For the molecule `Cc1cc(-n2nc3ccc(SCCOC(=O)c4ccccc4)cc3n2)c(O)c(C(C)(C)C)c1` [Compound 14], the “Absorbance at absoprtion peak” value stood at 2.21, the “Absorbance at peak end” value worked out at 0.02594, the “Absorption wavelength at peak end” value worked out at 419 nm and the “Molar extinction coefficient at peak” value is 22100 L/mol/cm. Besides, the “Wave length at absorption peak” value is listed as 365 nm.
Take `CCCCCCCCCCCCCCCCCC(=O)OCCCCCCSc1ccc2nn(-c3cc(C)cc(C(C)(C)C)c3O)nc2c1` [Compound 16]: the “Absorbance at absoprtion peak” value was 2.22, the “Absorbance at peak end” value came to 0.01846, the “Absorption wavelength at peak end” value stood at 420 nm and the “Molar extinction coefficient at peak” value came to 22200 L/mol/cm. In addition, the “Wave length at absorption peak” value is given as 367 nm.
The like results for `CC(=O)Oc1ccc(Sc2ccc3nn(-c4cc(C)cc(C(C)(C)C)c4O)nc3c2)cc1` [Compound 17] were, in that order, 2.24, 0.01899, 422 nm, 22400 L/mol/cm and 366 nm.
With `CCCCCCCCCCCCCCCCCC(=O)Oc1ccc(Sc2ccc3nn(-c4cc(C)cc(C(C)(C)C)c4O)nc3c2)cc1` [Compound 18], the “Absorbance at absoprtion peak” value is 2.22, the “Absorbance at peak end” value is recorded as 0.02575, the “Absorption wavelength at peak end” value is on record as 420 nm and the “Molar extinction coefficient at peak” value is 22200 L/mol/cm. Also, the “Wave length at absorption peak” value amounted to 366 nm.
For `Cc1cc(-n2nc3ccc(Sc4ccc(OC(=O)c5ccccc5)cc4)cc3n2)c(O)c(C(C)(C)C)c1` [Compound 19], the “Absorbance at absoprtion peak” value is on record as 2.29, the “Absorbance at peak end” value is recorded as 0.02244, the “Absorption wavelength at peak end” value came out at 422 nm and the “Molar extinction coefficient at peak” value is 22900 L/mol/cm. The “Wave length at absorption peak” value is reported as 366 nm.
Turning to `CCCCCCCCCCCCCCCCCCNC(=O)OCCCCCCSc1ccc2nn(-c3cc(C)cc(C(C)(C)C)c3O)nc2c1` [Compound 20], the “Absorbance at absoprtion peak” value came out at 2.20, the “Absorbance at peak end” value was determined as 0.00489, the “Absorption wavelength at peak end” value is reported as 423 nm and the “Molar extinction coefficient at peak” value amounted to 22000 L/mol/cm. Besides, the “Wave length at absorption peak” value is reported as 368 nm.
In the same order, the values of `CC(=O)Nc1ccc(Sc2ccc3nn(-c4cc(C)cc(C(C)(C)C)c4O)nc3c2)cc1` [Compound 21] are 2.24, 0.00955, 424 nm, 22400 L/mol/cm and 369 nm.
In the same order, the values of `CCCCCCCCCCCCCCCCCC(=O)Nc1ccc(Sc2ccc3nn(-c4cc(C)cc(C(C)(C)C)c4O)nc3c2)cc1` [Compound 22] are 2.23, 0.01382, 424 nm, 22300 L/mol/cm and 369 nm.
For the molecule `Cc1cc(-n2nc3ccc(Sc4ccc(NC(=O)c5ccccc5)cc4)cc3n2)c(O)c(C(C)(C)C)c1` [Compound 23], the “Absorbance at absoprtion peak” value amounted to 2.34, the “Absorbance at peak end” value is recorded as 0.01418, the “Absorption wavelength at peak end” value worked out at 424 nm and the “Molar extinction coefficient at peak” value worked out at 23400 L/mol/cm. The “Wave length at absorption peak” value was 369 nm.
Consider `Cc1cc(-n2nc3ccc(Sc4ccc(NC(=O)c5ccc6ccccc6c5)cc4)cc3n2)c(O)c(C(C)(C)C)c1` [Compound 24], for which the “Absorbance at absoprtion peak” value was determined as 2.36, the “Absorbance at peak end” value came out at 0.02, the “Absorption wavelength at peak end” value stood at 424 nm and the “Molar extinction coefficient at peak” value is 23600 L/mol/cm. The “Wave length at absorption peak” value amounted to 368 nm.
With `CCNC(=O)Nc1ccc(Sc2ccc3nn(-c4cc(C)cc(C(C)(C)C)c4O)nc3c2)cc1` [Compound 25], the “Absorbance at absoprtion peak” value was found to be 2.27, the “Absorbance at peak end” value was 0.0174, the “Absorption wavelength at peak end” value is given as 424 nm and the “Molar extinction coefficient at peak” value amounted to 22700 L/mol/cm. For the same molecule, the “Wave length at absorption peak” value stood at 370 nm.
On to `CCCCCCCCCCCCCCCCCCNC(=O)Nc1ccc(Sc2ccc3nn(-c4cc(C)cc(C(C)(C)C)c4O)nc3c2)cc1` [Compound 26], for which the “Absorbance at absoprtion peak” value is 2.17, the “Absorbance at peak end” value stood at 0.1501, the “Absorption wavelength at peak end” value is 419 nm and the “Molar extinction coefficient at peak” value was 21700 L/mol/cm. The “Wave length at absorption peak” value amounted to 368 nm.
Consider `Cc1cc(-n2nc3ccc(Sc4ccc(NC(=O)Nc5ccccc5)cc4)cc3n2)c(O)c(C(C)(C)C)c1` [Compound 27], for which the “Absorbance at absoprtion peak” value was found to be 2.39, the “Absorbance at peak end” value is reported as 0.01868, the “Absorption wavelength at peak end” value is listed as 425 nm and the “Molar extinction coefficient at peak” value came to 23900 L/mol/cm. Further, the “Wave length at absorption peak” value is reported as 369 nm.
For `COc1ccc(NC(=O)Nc2ccc(Sc3ccc4nn(-c5cc(C)cc(C(C)(C)C)c5O)nc4c3)cc2)cc1` [Compound 28], the “Absorbance at absoprtion peak” value is 2.26, the “Absorbance at peak end” value came out at 0.01853, the “Absorption wavelength at peak end” value turned out to be 423 nm and the “Molar extinction coefficient at peak” value was 22600 L/mol/cm. The “Wave length at absorption peak” value is recorded as 370 nm.
